Reference: patent US12565665B2, “Compositions and methods for controlled mRNA translation and stability” (TRUSTEES OF BOSTON UNIVERSITY, priority 2022, dated 2026)

Columns and labels:
UAG-MS2 editing reporter [1] = assay: Stop codon editing reporter (mCherry / mNeonGreen) co-transfected with ADAR variants, fluorescence microscopy / ImageJ quantification; type: cell-based, human; conditions: n=1; for ADAR editing of the reporter construct depending on fusion position of BAD / Bcl-xL: 50 ng reporter and 50 ng ADAR construct, with or without A-1331852
UAG-MS2 editing reporter [2] = assay: Stop codon editing reporter (mCherry / mNeonGreen) co-transfected with ADAR variants, flow cytometry (median mNeonGreen to mCherry); type: cell-based, human; conditions: for ADAR activity on mCherry-mNeonGreen reporter, no TEV protease: SpyTag / SpyCatcher ADAR variants, flow cytometry
Text: For the reporter system, the inventors used the fluorescent protein-epitope tag tandem fusions of mCherry-FLAG and HA-mNeonGreen as the upstream and downstream coding regions. Without DD editing activity, translation is terminated after mCherry-FLAG. Coexpression with MCP-ADAR2-DD was hypothesized to lead to binding of MCP-DD, stop codon UAG editing to UIG, and expression of mNeonGreen (FIG. 1B).
HEK 293 FT cells were co-transfected with plasmids expressing the reporter containing 2 UAG stop codons in the hairpin and a pcDNA3 construct encoding a fusion protein composed of MCP, ADAR2-DD (E488Q), and TagBFP.
Two days later, fluorescence microscopy images were taken of the cell populations. […] The inventors repeated the experiment and analyzed the samples by flow-cytometry.
The inventors transiently co-transfected HEK 293 FT cells with the mCherry-mNeonGreen reporter, MCP-ADAR2-DD variants containing different configurations of ALFA-tag insertions and NbALFA fusions, and uncaging constructs containing miRFP670 fused to ALFA. Without wishing to be bound by theory, it was hypothesized that the intramolecular interaction would inhibit the ADAR2-DD, but that the ALFA tag on the miRFP670 would displace the lower strength ALFA variants (PE and 78), and perhaps at high enough concentrations displace the intramolecular ALFA, and lead to increased editing.
The inventors then made an ADAR-DD variant with an inserted TEV protease cut site (amino acids ENLYFQG, SEQ ID NO: 286) between the C-terminus of ADAR2-DD and the N-terminus of SpyCatcher (FIG. 5C). The inventors co-transfected HEK 293 FT cells with the reporter construct, the ADAR-DD TEVcs variant, and the TEV protease and 48 hours later analyzed the transfected cells via flow cytometry (FIG. 5D-5E).
Mutated versions were then cloned and co-transfected with an editing reporter in the absence and presence of A-1331852, and absolute background and fold change upon drug addition were determined by flow cytometry (see e.g., FIG. 22d and table 11).

| Substance | ADAR editing of the reporter construct depending on fusion position of BAD / Bcl-xL (UAG-MS2 editing reporter [1]; HEK cells, two days) | ADAR activity on mCherry-mNeonGreen reporter, no TEV protease (UAG-MS2 editing reporter [2]) | further results |
| --- | --- | --- | --- |
| MCP-linker-BAD-ADAR2-DD(E488Q)-Bcl-xL-TagBFP [BAD-DD-BclxL] | drug-dependent allostery |  | fold change with A-1331852, N-terminal BAD fusion system (UAG-MS2 editing reporter [1]; HEK cells, absence or presence of A-1331852, two days): 5.9 ×; background in the absence of drug compared with the loop insertion conformation (UAG-MS2 editing reporter [1]; N-terminal BAD, C-terminal Bcl-xL): significantly higher |
| MCP-linker-ADAR2-DDN-SpyTag- ADAR2(E488Q)-DDC-TagBFP -P2A-T2A-SpyCatcher [T2A-SpyCatcher variant] |  | activity was seen |  |
| MCP-linker-BclxL-linker-ADAR2-DDN-Bad(L)-ADAR2(E488Q)-DDC-TagBFP [BclxL-nDD-BAD-cDD] | did not inhibit the enzymatic activity |  |  |
| MCP-linker-ADAR2-DDN-SpyTag- ADAR2(E488Q)-DDC-TagBFP [SpyTag variant] |  | activity was seen |  |
| MCP-linker-BAD-ADAR2-DD(E488Q)-TagBFP [BAD-DD] | did not affect ADAR editing of the reporter construct |  |  |
| MCP-linker-ADAR2-DDN-SpyTag- ADAR2(E488Q)-DDC-TEVcs-SpyCatcher-TagBFP [ADAR-DD TEVcs variant] |  |  | induced ADAR activity with TEV protease (UAG-MS2 editing reporter [2]; co-transfected TEV protease, flow cytometry 48 hours later): close to that of the non-engineered ADAR2-DD; dependence of ADAR activity on TEV protease (UAG-MS2 editing reporter [2]; co-transfected with or without TEV protease, flow cytometry 48 hours later): only active with the addition of TEV protease |
